From publication PMC6938345, “Inhibition of complement activation, myeloperoxidase, NET formation and oxidant activity by PIC1 peptide variants” (PLoS ONE, 2019)

Columns and labels:
[1] = Total Antioxidant Capacity (TAC) assay
Protocol: The TAC (Total Antioxidant Capacity) Assay (Cell Biolabs, Inc, San Diego, CA) was used to measure the antioxidant capacity of the sarcosine variants based on the reduction of copper (II) to copper (I). The kit protocol was performed as recommended.
Antioxidant activity is measured in copper reducing equivalents (CRE). Peptides were tested over a range of concentrations from 0.03–0.25 mM then compared to the standard. Data are the means of n = 3 independent experiments + SEM.

[2] = system: classical complement pathway (factor B-depleted human sera + antibody-sensitized sheep erythrocytes); experiment: Classical pathway CH50-type hemolytic assay in factor B-depleted sera; type: cell-based; conditions: peptides 0.4 mM, P < 0.001
Protocol: For hemolytic complement assays, human red blood cells (RBCs) from type AB donors were purified, washed and standardized to 1 × 10^9 cells/ml, as previously described. Human sera from type O donors at a 20% final concentration was combined with 1 mM PIC1 or sarcosine variant peptides and the volume was brought up to 0.15 ml with GVBS^++ and 0.5 ml RBCs. For factor B-depleted sera hemolytic assays, a final of 0.005% factor B depleted sera was incubated with 1 mM PIC1 or sarcosine variant peptides with 0.1 ml antibody-sensitized sheep red blood cells (EA) in a final volume of 0.75 ml GVBS^++. The samples were incubated for 1 hour at 37 °C and then 1.0 ml of GVBS^-—was added to the factor B-depleted samples to stop the reaction. The samples were spun at 3,000 rpm for 5 minutes and the supernatant was collected and read at 412 nm. Values are represented as a percent of the positive control, which consists of human O sera and AB red blood cells in GVBS^++ buffer. […]
Fig 1 Sarcosine variant inhibition of complement activation in hemolytic assays and C1q binding. […] D) Half-maximal binding concentrations were calculated for each peptide’s binding curve.

SMILES: CC[C@H](C)[C@H](N)C(=O)N[C@@H](C)C(=O)N[C@@H](CC(C)C)C(=O)N[C@H](C(=O)N[C@@H](CC(C)C)C(=O)N[C@@H](CCC(=O)O)C(=O)N1CCC[C@H]1C(=O)N(C)CC(=O)N[C@@H](CS)C(=O)N[C@@H](CS)C(=O)N[C@@H](CCC(N)=O)C(=O)N[C@@H](CCC(=O)O)C(=O)N[C@@H](CCCNC(=N)N)C(=O)N[C@@H](C)C(=O)N[C@@H](C)C(=O)O)[C@@H](C)CC [I8]
- TAC assay, antioxidant activity ([1]; Avg of n = 3): 1239.37 copper reducing equivalents (CRE)
- antioxidant capacity (in words) ([1]; TAC assay): approaching that of PA-dPEG24
- inhibition of hemolysis more than PA-dPEG24 [2]: 75%
